Source: patent US7855166B2, “Sulfonylamino(thio)carbonyl compounds” (Bayer Cropscience GmbH, priority 2005, dated 2010)

Key:
[1] = tested on: weed plants such as Sinapis alba, Chrysanthemum segetum, Avena sativa, Stellaria media, Echinochloa crus-galli, Lolium multiflorum, Setaria viridis, Abutilon …; test: Pre-emergence effect on weeds (greenhouse pot test, visual scoring); format: in vivo; conditions: applied pre-emergence at a rate of 0.3 kg or less of active substance per hectare; scored after 3 to 4 weeks in comparison to untreated controls
[2] = tested on: weed plants such as Sinapis alba, Echinochloa crus-galli, Lolium multiflorum, Chrysanthemum segetum, Setaria viridis, Abutilon theophrasti, Amaranthus …; test: Post-emergence effect on weeds (greenhouse pot test, visual scoring); format: in vivo; conditions: applied post-emergence (three-leaf stage) at a rate of 0.3 kg or less of active substance per hectare; scored after about 3 to 4 weeks in comparison to untreated controls

| SMILES | herbicidal action against weed plants (visual scoring of plant damage or emergence damage) [1] | herbicidal action against weed plants (effect scored visually) [2] |
| --- | --- | --- |
| COc1nn(C(=O)NS(=O)(=O)c2ccccc2I)c(=O)n1C [Compound 1.001] | very good herbidical action | very good herbicidal action |
| CCOc1nn(C(=O)NS(=O)(=O)c2ccccc2I)c(=O)n1C [Compound 1.004] | very good herbidical action | very good herbicidal action |
| CCCOc1nn(C(=O)NS(=O)(=O)c2ccccc2I)c(=O)n1C [Compound 1.005] | very good herbidical action | very good herbicidal action |
| COc1nn(C(=O)NS(=O)(=O)c2ccccc2I)c(=O)n1C1CC1 [Compound 1.008] | very good herbidical action | very good herbicidal action |
| CCOc1nn(C(=O)NS(=O)(=O)c2ccccc2I)c(=O)n1C1CC1 [Compound 1.011] | very good herbidical action | very good herbicidal action |
| CCCOc1nn(C(=O)NS(=O)(=O)c2ccccc2I)c(=O)n1C1CC1 [Compound 1.014] | very good herbidical action | very good herbicidal action |
| COc1nn(C(=O)NS(=O)(=O)c2c(F)cccc2I)c(=O)n1C [Compound 1.021] | very good herbidical action | very good herbicidal action |
| CCOc1nn(C(=O)NS(=O)(=O)c2c(F)cccc2I)c(=O)n1C [Compound 1.022] | very good herbidical action | very good herbicidal action |
| CCCOc1nn(C(=O)NS(=O)(=O)c2c(F)cccc2I)c(=O)n1C [Compound 1.023] | very good herbidical action | very good herbicidal action |
| CC(C)Oc1nn(C(=O)NS(=O)(=O)c2c(F)cccc2I)c(=O)n1C [Compound 1.024] | very good herbidical action | very good herbicidal action |
| CCOc1nn(C(=O)NS(=O)(=O)c2c(F)cccc2I)c(=O)n1C1CC1 [Compound 1.027] | very good herbidical action | very good herbicidal action |
| CCCOc1nn(C(=O)NS(=O)(=O)c2c(F)cccc2I)c(=O)n1C1CC1 [Compound 1.028] | very good herbidical action | very good herbicidal action |
| COc1nn(C(=O)NS(=O)(=O)c2c(C)cccc2I)c(=O)n1C [Compound 1.037] | very good herbidical action | very good herbicidal action |
| CCOc1nn(C(=O)NS(=O)(=O)c2c(C)cccc2I)c(=O)n1C [Compound 1.038] | very good herbidical action | very good herbicidal action |
| CCCOc1nn(C(=O)NS(=O)(=O)c2c(C)cccc2I)c(=O)n1C [Compound 1.039] | very good herbidical action | very good herbicidal action |
| Cc1cccc(I)c1S(=O)(=O)NC(=O)n1nc(OC(C)C)n(C)c1=O [Compound 1.040] | very good herbidical action | very good herbicidal action |
| COc1nn(C(=O)NS(=O)(=O)c2c(C)cccc2I)c(=O)n1C1CC1 [Compound 1.042] | very good herbidical action | very good herbicidal action |
| CCCOc1nn(C(=O)NS(=O)(=O)c2c(C)cccc2I)c(=O)n1C1CC1 [Compound 1.044] | very good herbidical action | very good herbicidal action |

| SMILES | herbicidal action against weed plants (visual scoring of plant damage or emergence damage) [1] | herbicidal action against weed plants (effect scored visually) [2] |
| --- | --- | --- |
| COc1nn(C(=O)NS(=O)(=O)c2c(I)cccc2C(F)(F)F)c(=O)n1C [Compound 1.133] | very good herbidical action | very good herbicidal action |
| CCOc1nn(C(=O)NS(=O)(=O)c2c(I)cccc2C(F)(F)F)c(=O)n1C [Compound 1.136] | very good herbidical action | very good herbicidal action |
| CCCOc1nn(C(=O)NS(=O)(=O)c2c(I)cccc2C(F)(F)F)c(=O)n1C [Compound 1.137] | very good herbidical action | very good herbicidal action |
| CC(C)Oc1nn(C(=O)NS(=O)(=O)c2c(I)cccc2C(F)(F)F)c(=O)n1C [Compound 1.138] | very good herbidical action | very good herbicidal action |
| COc1nn(C(=O)NS(=O)(=O)c2c(I)cccc2C(F)(F)F)c(=O)n1C1CC1 [Compound 1.140] | very good herbidical action | very good herbicidal action |
| CCOc1nn(C(=O)NS(=O)(=O)c2c(I)cccc2C(F)(F)F)c(=O)n1C1CC1 [Compound 1.143] | very good herbidical action | very good herbicidal action |
| CCOc1nn(C(=O)NS(=O)(=O)c2c(I)cccc2OC)c(=O)n1C1CC1 [Compound 1.191, 4-Cyclopropyl-3-ethoxy-N-[(2-iodo-6-methoxyphenyl)sulfonyl]-5-oxo-4,5-dihydro-1H-1,2,4-triazole-1-carboxamide] | very good herbidical action | very good herbicidal action |
| CCOc1nn(C(=O)NS(=O)(=O)c2c(I)cccc2OC)c(=O)n1C [Compound 1.194] | very good herbidical action | very good herbicidal action |
| CCCOc1nn(C(=O)NS(=O)(=O)c2c(I)cccc2OC)c(=O)n1C [Compound 1.195] | very good herbidical action | very good herbicidal action |
| COc1cccc(I)c1S(=O)(=O)NC(=O)n1nc(OC(C)C)n(C)c1=O [Compound 1.196] | very good herbidical action | very good herbicidal action |
| CCSc1nn(C(=O)NS(=O)(=O)c2c(I)cccc2OC)c(=O)n1C [Compound 1.197] | very good herbidical action | very good herbicidal action |
| COc1cccc(I)c1S(=O)(=O)NC(=O)n1nc(OC)n(C2CC2)c1=O [Compound 1.198] | very good herbidical action | very good herbicidal action |
| CCCOc1nn(C(=O)NS(=O)(=O)c2c(I)cccc2OC)c(=O)n1C1CC1 [Compound 1.204] | very good herbidical action | very good herbicidal action |
| CCOc1cccc(I)c1S(=O)(=O)NC(=O)n1nc(OC)n(C)c1=O [Compound 1.211] | very good herbidical action | very good herbicidal action |
| CCOc1cccc(I)c1S(=O)(=O)NC(=O)n1nc(OCC)n(C)c1=O [Compound 1.214] | very good herbidical action | very good herbicidal action |
| CCCOc1nn(C(=O)NS(=O)(=O)c2c(I)cccc2OCC)c(=O)n1C [Compound 1.215] | very good herbidical action | very good herbicidal action |
| CCOc1cccc(I)c1S(=O)(=O)NC(=O)n1nc(OC)n(C2CC2)c1=O [Compound 1.218] | very good herbidical action | very good herbicidal action |
